From ChEMBL document CHEMBL5608235, “Tricyclic Benzo[1,3]oxazinyloxazolidinones as Potent Antibacterial Agents against Drug-Resistant Pathogens” (J Med Chem, 2024)
In brackets after ≈: the same amount, converted by molar mass.

Columns and labels:
[1] = test system: Mycobacterium tuberculosis; assay: Antibacterial activity against Mycobacterium tuberculosis H37Rv assessed as inhibition of bacterial growth incubated for 7 days by alamar blue assay; assay type: functional; conditions: 168 h, time 7 day
[2] = test system: Staphylococcus aureus; assay: Antibacterial activity against Staphylococcus aureus ATCC25923 assessed as inhibition of bacterial growth incubated for 18 hrs by microdilution broth assay; assay type: functional
[3] = test system: Enterococcus faecalis; assay: Antibacterial activity against Enterococcus faecalis ATCC29212 assessed as inhibition of bacterial growth incubated for 18 hrs by microdilution broth assay; assay type: functional
[4] = test system: Bacillus subtilis; assay: Antibacterial activity against Bacillus subtilis ATCC6633 assessed as inhibition of bacterial growth incubated for 18 hrs by microdilution broth assay; assay type: functional
[5] = test system: Staphylococcus epidermidis; assay: Antibacterial activity against Staphylococcus epidermidis ATCC12228 assessed as inhibition of bacterial growth incubated for 18 hrs by microdilution broth assay; assay type: functional
[6] = Cytotoxicity against African green monkey Vero cells incubated for 48 hrs by MTT assay; assay type: toxicity, cell-based, Chlorocebus sabaeus
[7] = test system: Staphylococcus aureus; assay: Antibacterial activity against methicillin resistant Staphylococcus aureus clinical isolate 20-1 assessed as inhibition of bacterial growth incubated for 7 days by alamar blue assay; assay type: functional; conditions: clinical isolate 20-1, 168 h, time 7 day
[8] = test system: Staphylococcus aureus; assay: Antibacterial activity against methicillin resistant Staphylococcus aureus clinical isolate 20-2 assessed as inhibition of bacterial growth incubated for 7 days by alamar blue assay; assay type: functional; conditions: clinical isolate 20-2, 168 h, time 7 day
[9] = test system: Staphylococcus epidermidis; assay: Antibacterial activity against methicillin resistant Staphylococcus epidermidis clinical isolate 20-1 assessed as inhibition of bacterial growth incubated for 7 days by alamar blue assay; assay type: functional; conditions: clinical isolate 20-1, 168 h, time 7 day
[10] = test system: Staphylococcus epidermidis; assay: Antibacterial activity against methicillin resistant Staphylococcus epidermidis clinical isolate 20-2 assessed as inhibition of bacterial growth incubated for 7 days by alamar blue assay; assay type: functional; conditions: clinical isolate 20-2, 168 h, time 7 day
[11] = test system: Staphylococcus aureus; assay: Antibacterial activity against vancomycin intermediate Staphylococcus aureus ATCC700699 assessed as inhibition of bacterial growth incubated for 7 days by alamar blue assay; assay type: functional; conditions: ATCC700699, 168 h, time 7 day
[12] = test system: Enterococcus; assay: Antibacterial activity against vancomycin resistant Enterococcus clinical isolate 20-1 assessed as inhibition of bacterial growth incubated for 7 days by alamar blue assay; assay type: functional; conditions: clinical isolate 20-1, 168 h, time 7 day
[13] = test system: Staphylococcus aureus; assay: Antibacterial activity against Linezolid resistant Staphylococcus aureus clinical isolate 20-1 assessed as inhibition of bacterial growth incubated for 7 days by alamar blue assay; assay type: functional; conditions: clinical isolate 20-1, 168 h, time 7 day
[14] = test system: Staphylococcus aureus; assay: Antibacterial activity against Linezolid resistant Staphylococcus aureus clinical isolate 20-2 assessed as inhibition of bacterial growth incubated for 7 days by alamar blue assay; assay type: functional; conditions: clinical isolate 20-2, 168 h, time 7 day
[15] = test system: Enterococcus faecalis; assay: Antibacterial activity against Linezolid resistant Enterococcus faecalis clinical isolate 20-1 assessed as inhibition of bacterial growth incubated for 7 days by alamar blue assay; assay type: functional; conditions: clinical isolate 20-1, 168 h, time 7 day
[16] = test system: Enterococcus faecalis; assay: Antibacterial activity against Linezolid resistant Enterococcus faecalis clinical isolate 20-2 assessed as inhibition of bacterial growth incubated for 7 days by alamar blue assay; assay type: functional; conditions: clinical isolate 20-2, 168 h, time 7 day
[17] = Metabolic stability in ICR mouse liver microsomes assessed as compound remaining at 10 uM incubated for 60 mins in absence of NADPH by LC-MS/MS analysis; assay type: ADME, Microsome; conditions: read-out: Stability
[18] = Metabolic stability in human liver microsomes assessed as compound remaining at 10 uM incubated for 60 mins in absence of NADPH by LC-MS/MS analysis; assay type: ADME, Microsome; conditions: read-out: Stability
[19] = Metabolic stability in ICR mouse liver microsomes assessed as substrate remaining at 10 uM incubated for 60 mins in presence of NADPH by LC-MS/MS analysis; assay type: ADME, Microsome; conditions: read-out: Stability
[20] = Metabolic stability in human liver microsomes assessed as substrate remaining at 10 uM incubated for 60 mins in presence of NADPH by LC-MS/MS analysis; assay type: ADME, Microsome; conditions: read-out: Stability
[21] = Terminal half life in BALB/c mouse at 1 mg/kg,iv administration measured upto 24 hrs by LC-MS/MS analysis; assay type: ADME, organism-based; conditions: in vivo, read-out: beta t1/2 (converted)
[22] = Terminal half life in BALB/c mouse at 10 mg/kg,po administration measured upto 24 hrs by LC-MS/MS analysis; assay type: ADME, organism-based; conditions: in vivo, read-out: beta t1/2 (converted)
[23] = Cmax in BALB/c mouse at 1 mg/kg,iv administration measured upto 24 hrs by LC-MS/MS analysis; assay type: ADME, organism-based; conditions: in vivo
[24] = Cmax in BALB/c mouse at 10 mg/kg,po administration measured upto 24 hrs by LC-MS/MS analysis; assay type: ADME, organism-based; conditions: in vivo
[25] = AUC (0 to t) in BALB/c mouse at 1 mg/kg,iv administration measured upto 24 hrs by LC-MS/MS analysis; assay type: ADME, organism-based; conditions: in vivo
[26] = AUC (0 to t) in BALB/c mouse at 10 mg/kg,po administration measured upto 24 hrs by LC-MS/MS analysis; assay type: ADME, organism-based; conditions: in vivo
[27] = AUC (0 to infinity) in BALB/c mouse at 1 mg/kg,iv administration measured upto 24 hrs by LC-MS/MS analysis; assay type: ADME, organism-based; conditions: in vivo, iv, 1 mg/kg, 24 h
[28] = AUC (0 to infinity) in BALB/c mouse at 10 mg/kg,po administration measured upto 24 hrs by LC-MS/MS analysis; assay type: ADME, organism-based; conditions: in vivo, po, 10 mg/kg, 24 h
[29] = MRT (0 to t) in BALB/c mouse at 1 mg/kg,iv administration measured upto 24 hrs by LC-MS/MS analysis; assay type: ADME, organism-based; conditions: in vivo
[30] = MRT (0 to t) in BALB/c mouse at 10 mg/kg,po administration measured upto 24 hrs by LC-MS/MS analysis; assay type: ADME, organism-based; conditions: in vivo
[31] = MRT (0 to infinity) in BALB/c mouse at 1 mg/kg,iv administration measured upto 24 hrs by LC-MS/MS analysis; assay type: ADME, organism-based; conditions: in vivo
[32] = MRT (0 to infinity) in BALB/c mouse at 10 mg/kg,po administration measured upto 24 hrs by LC-MS/MS analysis; assay type: ADME, organism-based; conditions: in vivo
[33] = Volume of distribution in BALB/c mouse at 1 mg/kg,iv administration measured upto 24 hrs by LC-MS/MS analysis; assay type: ADME, organism-based; conditions: in vivo
[34] = Clearance in BALB/c mouse at 1 mg/kg,iv administration measured upto 24 hrs by LC-MS/MS analysis; assay type: ADME, organism-based; conditions: in vivo
[35] = Oral bioavailability in BALB/c mouse at 10 mg/kg administration measured upto 24 hrs by LC-MS/MS analysis; assay type: ADME, organism-based; conditions: in vivo, po, 10 mg/kg, 24 h
[36] = Plasma protein binding in BALB/c mouse at 1 mg/kg,iv administration measured upto 24 hrs by LC-MS/MS analysis; assay type: ADME, organism-based; conditions: read-out: PPB (converted)
[37] = Tmax in BALB/c mouse at 10 mg/kg,po administration measured upto 24 hrs by LC-MS/MS analysis; assay type: ADME, organism-based; conditions: in vivo
[38] = Drug concentration in BALB/c mouse plasma at 10 mg/kg,po administration measured within 15 mins by LC-MS/MS analysis; assay type: ADME, organism-based
[39] = Drug concentration in BALB/c mouse plasma at 10 mg/kg,po administration measured after 24 hrs by LC-MS/MS analysis; assay type: ADME, organism-based; conditions: in vivo
[40] = Free AUC in BALB/c mouse at 10 mg/kg,po administration measured upto 24 hrs by LC-MS/MS analysis; assay type: ADME, organism-based; conditions: in vivo

With `COC(=O)NC[C@@H]1OC(=O)N2Cc3cc(-c4ccc(C#N)cc4)c(F)cc3O[C@@H]12` the MIC [1] was 0.73 µg/mL (≈ 1.84 µM), the MIC [2] was 2 µg/mL (≈ 5.03 µM) and the MIC [3] was 0.25 µg/mL (≈ 0.629 µM). For the same compound, the MIC [4] was 0.063 µg/mL (≈ 0.159 µM), the MIC [5] was 0.032 µg/mL (≈ 0.0805 µM) and the IC50 at 48 h [6] was > 64 µg/mL. It also gave an MIC [7] of 0.5 µg/mL (≈ 1.26 µM), an MIC [8] of 0.5 µg/mL (≈ 1.26 µM) and an MIC [9] of 0.125 µg/mL (≈ 0.315 µM). For the same compound, the MIC [10] was 0.125 µg/mL (≈ 0.315 µM), the MIC [11] was 0.5 µg/mL (≈ 1.26 µM) and the MIC [12] was 0.5 µg/mL (≈ 1.26 µM). The MIC [13] was 8 µg/mL (≈ 20.1 µM), the MIC [14] was 8 µg/mL (≈ 20.1 µM) and the MIC [15] was 2 µg/mL (≈ 5.03 µM). It also gave an MIC [16] of 2 µg/mL (≈ 5.03 µM), a remaining at 1 h, 10 µM [17] of 112% and a remaining at 1 h, 10 µM [18] of 108%. It also gave a remaining at 1 h, 10 µM [19] of 114%, a remaining at 1 h, 10 µM [20] of 113% and a half-life [21] of 234 min. For the same compound, the half-life [22] was 2960 min, the Cmax [23] was 514 ng/mL and the Cmax [24] was 2790 ng/mL. For the same compound, the AUC(0-t) at 24 h [25] was 6810 ng·h/mL, the AUC(0-t) at 24 h [26] was 54300 ng·h/mL and the AUC [27] was 6893 ng·h/mL. For the same compound, the AUC [28] was 188.361 µg·h/mL, the MRT last at 24 h [29] was 8.1 h and the MRT last at 24 h [30] was 11.3 h. It also gave an MRT inf [31] of 8.4 h, an MRT inf [32] of 70.9 h and a Vd [33] of 0.818 L/kg. For the same compound, the clearance [34] was 2.42 mL/min/kg, the F [35] was 79.8% and the fraction unbound at 24 h [36] was 0.174. For the same compound, the Tmax [37] was 4 h, the concentration at 0.25 h [38] was 1000 ng/mL and the Drug uptake [39] was > 60%. The fAUC [40] was 9.45 µg·h/mL.
